Test results taken from patent US20170224819A1, “Therapeutic Combinations of a BTK Inhibitor, a PI3K Inhibitor, a JAK-2 Inhibitor, and/or a CDK 4/6 Inhibitor” (Acerta Pharma B.V., priority 2014, published 2017).

Experiments:
KrasLA2 NSCLC = assay: KrasLA2 non-small cell lung cancer (NSCLC) model; format: in vivo
Excerpt: FIG. 161 illustrates the dosing schema used with the KrasLA2 non-small cell lung cancer (NSCLC) model.
FIG. 162 illustrates tumor volume variation from baseline as assessed by microcomputerized tomography (microCT) in the KrasL2 NSCLC model.

[1] = In vitro metabolism in hepatocytes with 14C-labeled compound; format: in vitro ADME, mouse, rat, dog, rabbit, monkey, and human
NK cells = assay: NK cell degranulation (CD107a externalization, flow cytometry); format: cell-based, human; conditions: 1 μM, HER18 target cells
Experimental: Lytic granule release was determined as follows. NK cells from healthy donors were enriched and cultured in the presence of target cells, monoclonal antibodies and test articles as described above. After 4 hours, the cultures were harvested and cells were pelleted, washed, and then stained for flow cytometry evaluation. Degranulation was evaluated via by flow cytometery by externalization of CD107a, a protein normally present on the inner leaflet of lytic granules, and gating on NK cells (CD3-CD16^+ lymphocytes). The percentage of CD107a positive NK cells was quantified by comparison with a negative control (isotype control, unstained cells/FMO). Control cultures (NK cells cultured without target cells, or NK, target cell co-cultures in the absence of appropriate monoclonal antibody) were also evaluated; all experiments were performed in triplicate.

ID8 ovarian cancer = assay: ID8 syngeneic orthotropic ovarian cancer murine model; format: in vivo, mice; conditions: 15 mg/kg/BID orally
Excerpt: Human ovarian cancer models, including the ID8 syngeneic orthotropic ovarian cancer model and other animal models, are described in Fong and Kakar, J. Ovarian Res. 2009, 2, 12; Greenaway et al., Gynecol. Oncol. 2008, 108, 385-94; Urzua et al., Tumour Biol. 2005, 26, 236-44; Janat-Amsbury et al., Anticancer Res. 2006, 26, 3223-28; Janat-Amsbury et al., Anticancer Res. 2006, 26, 2785-89. […] The results of the study are shown in FIG. 108, FIG. 109, FIG. 110, FIG. 111, FIG. 112, FIG. 113, FIG. 114, and FIG. 115.

CYP3A4 = CYP3A4 (Homo sapiens, UniProt P08684); assay: In vitro CYP metabolism and CYP interaction studies; format: in vitro ADME
Sequence of CYP3A4 (P08684 whole entry): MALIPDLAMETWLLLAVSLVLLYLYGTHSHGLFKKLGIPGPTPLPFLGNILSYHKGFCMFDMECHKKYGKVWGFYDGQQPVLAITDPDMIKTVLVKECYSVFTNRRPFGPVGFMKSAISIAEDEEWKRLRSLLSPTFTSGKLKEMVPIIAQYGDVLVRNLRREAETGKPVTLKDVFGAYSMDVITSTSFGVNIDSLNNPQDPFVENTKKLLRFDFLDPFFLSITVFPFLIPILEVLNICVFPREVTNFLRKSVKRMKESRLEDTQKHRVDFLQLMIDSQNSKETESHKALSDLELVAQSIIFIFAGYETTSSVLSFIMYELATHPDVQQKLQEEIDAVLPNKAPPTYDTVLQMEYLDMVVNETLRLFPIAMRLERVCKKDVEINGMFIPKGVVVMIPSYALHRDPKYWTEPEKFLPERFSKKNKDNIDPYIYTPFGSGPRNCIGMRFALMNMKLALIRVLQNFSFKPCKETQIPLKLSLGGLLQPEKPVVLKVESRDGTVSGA

[2] = Glutathione binding and depletion in vitro; format: in vitro ADME
BTK = BTK (Homo sapiens, UniProt Q06187); assay: BTK target occupancy in relapsed/refractory CLL patients; conditions: at lower dosage versus ibrutinib, FIG. 144
Sequence of BTK (Q06187 whole entry): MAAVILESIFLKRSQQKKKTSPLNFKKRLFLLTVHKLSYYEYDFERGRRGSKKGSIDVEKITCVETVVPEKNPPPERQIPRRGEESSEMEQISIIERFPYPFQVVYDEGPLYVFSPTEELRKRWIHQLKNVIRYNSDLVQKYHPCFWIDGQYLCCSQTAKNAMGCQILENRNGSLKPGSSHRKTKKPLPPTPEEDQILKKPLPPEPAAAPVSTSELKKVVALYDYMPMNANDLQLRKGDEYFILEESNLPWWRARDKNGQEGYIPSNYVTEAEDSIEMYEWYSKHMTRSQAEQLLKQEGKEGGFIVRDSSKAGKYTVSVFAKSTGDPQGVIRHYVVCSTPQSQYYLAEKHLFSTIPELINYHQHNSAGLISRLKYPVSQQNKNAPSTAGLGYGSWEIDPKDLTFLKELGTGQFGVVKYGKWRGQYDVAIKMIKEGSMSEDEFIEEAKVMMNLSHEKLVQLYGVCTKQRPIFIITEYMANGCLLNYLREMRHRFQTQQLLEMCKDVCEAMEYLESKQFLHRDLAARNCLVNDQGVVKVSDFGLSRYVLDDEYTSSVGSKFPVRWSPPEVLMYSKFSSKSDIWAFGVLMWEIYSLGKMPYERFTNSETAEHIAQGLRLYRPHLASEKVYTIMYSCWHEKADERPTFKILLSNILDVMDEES

BCR = assay: In vivo potency: expression of activation markers CD69 and CD86 after BCR stimulation with IgM; conditions: compared with ibrutinib; mice gavaged, sacrificed 3 h post-dose; flow cytometry; FIG. 137
Experimental: Mice were gavaged at increasing drug concentration and sacrificed at one time point (3 h post-dose). BCR is stimulated with IgM and the expression of activation markers CD69 and CD86 are monitored by flow cytometry to determine EC50's.

[3] = tested on: KPC derived mouse pancreatic cancer cells; assay: KPC derived pancreatic cancer cells injected into the pancreas, Formula (XVIII) and/or gemcitabine; format: in vivo; conditions: 15 mg/kg/BID orally
Experimental: In this study, KPC derived mouse pancreatic cancer cells (KrasG12D; Trp53R172H; Pdxl-Cre) were injected into the pancreases.
Single cell suspensions from tumor samples. Mouse tumor tissue was collected and stored in PBS/0.1% soybean trypsin inhibitor prior to enzymatic dissociation. Samples were finely minced with a scissors and mouse tissue was transferred into DMEM containing 1.0 mg/ml collagenase IV (Gibco), 0.1% soybean trypsin inhibitor, and 50 U/ml DNase (Roche) and incubated at 37° C. for 30 minutes with constant stirring while human tissue was digested in 2.0 mg/ml collagenase IV, 1.0 mg/ml hyluronidase, 0.1% soybean trypsin inhibitor, and 50 U/ml DNase for 45 minutes. Suspensions were filtered through a 100 micron filter and washed with FACS buffer (PBS/0.5% BSA/2.0 mM EDTA) prior to staining. Two million total cells were stained with antibodies as indicated. Intracellular detection of FoxP3 was achieved following permeabilization with BD Perm Buffer III (BD Biosciences) and eBioscience Fix/Perm respectively. Following surface staining, samples were acquired on a BD Fortessa and analyzed using FlowJo (Treestar) software.

## CC#CC(=O)N1CCC[C@H]1c1nc(-c2ccc(C(=O)Nc3ccccn3)cc2)c2c(N)nccn12 [Formula (XVIII), (S)-4-(8-amino-3-(1-(but-2-ynoyl)pyrrolidin-2-yl)imidazo[1,5-a]pyrazin-1-yl)-N-(pyridin-2-yl)benzamide]
KrasLA2 NSCLC; FIG. 163
  immunosuppressive tumor associated TAMs: significant reduction
KrasLA2 NSCLC; FIG. 164
  immunosuppressive tumor associated MDSCs: significant reduction
KrasLA2 NSCLC; FIG. 165
  immunosuppressive tumor associated Tregs: significant reduction
[1]; hepatocytes
  Unique human metabolite: No unique human metabolite was identified
[1]; mouse, rat, dog, rabbit, monkey, and human hepatocytes
  Metabolites in hepatocytes: two mono-oxidized metabolites and a glutathione conjugate
NK cells
  Inhibition of trastuzumab-stimulated NK cell degranulation: no inhibitory effect
ID8 ovarian cancer
  CD8+ T cells: increase in CD8^+ T cells
  ID8 ovarian cancer growth: impairs ID8 ovarian cancer growth
  Immunosuppressive B cells: significant reduction in immunosuppressive B cells
  Immunosuppressive tumor-associated lymphocytes: significant reduction in immunosuppressive tumor-associated lymphocytes
  Tumor associated Tregs: significant reduction in immunosuppressive tumor associated Tregs
CYP3A4; in vitro
  CYP catalyzed loss of parent drug: metabolized by CYP3A4
CYP3A4; nonclinical CYP interaction studies
  CYP drug-drug interaction potential: very unlikely to cause clinical drug-drug interactions
[2]
  Glutathione binding and depletion: binds to glutathione but does not deplete glutathione in vitro
BTK
  BTK target occupancy: improved
BCR
  potency at inhibiting expression of activation markers CD69 and CD86: more potent
[3]
  Tumor burden: reduction in tumor burden
